{"source": "patent US11249070B2", "about": "“Anti-cancer drug assessment method” (TOPPAN PRINTING CO., LTD., priority 2016, dated 2022)", "key": {"[1]": {"test_system": "human lung adenocarcinoma cell line A549", "experiment": "CNT with 5-FU with or without bevacizumab, NHDF/HUVEC cell structure, flow cytometer (Example 11)", "format": "cell-based", "conditions": "3D (NHDF, HUVEC), bevacizumab 2 μg per well in the combination, 72 hours", "experimental": "(§1) Thereafter, 400 μL of Fixation/Permilization solution (554722, produced by BD Bioscience) was added for fixation at 4° C. for 30 minutes, and the liquid component was removed. Then, 400 μL of Perm/Wash buffer attached to the kit was added, and centrifugation was performed at room temperature at 1120×g for 5 minutes. Thereafter, a primary antibody Monoclonal Mouse Anti-human Cytokeratin 7 (M7018, produced by DAKO) diluted with 5% FBS-containing PBS was added and allowed to react at 4° C. for 30 minutes. Then, the liquid component was removed, and washing was performed twice using Perm/Wash buffer attached to the kit. A secondary antibody Goat anti-Mouse IgG1 Cross-Adsorbed Secondary Antibody, Alexa Fluor 546 (A-11030, produced by Thermo Fischer Scientific) diluted with 5% FBS-containing PBS was added and allowed to react at 4° C. for 30 minutes. Thereafter, the liquid component was removed, washing was performed twice using Perm/Wash buffer attached to the kit, and the resultant was resuspended in 350 μL of 5% FBS-containing PBS.\n(§2) The number of cells emitting fluorescence in the suspension after fixation and staining was counted as viable cancer cells. The cell count was performed using a flow cytometer (produced by Sony)."}, "[2]": {"test_system": "HT29", "experiment": "CNT with 5-FU with or without bevacizumab, 2D, spheroid, 3D (Example 5)", "format": "cell-based, human", "conditions": "bevacizumab 2 μg per well in the combination, 72 hours", "description": "Moreover, for comparison, in place of the above cell structures, structures were produced by culturing cancer cells so as to form a single layer in a general culture container (2D method), and spheroids were produced by spheroid culture of a mixture of 2×10^6 NHDF, 3×10^4 HUVEC, and 2×10^4 cancer cells (spheroid method)."}, "[3]": {"test_system": "human lung adenocarcinoma cell line A549", "experiment": "CNT with 5-FU with or without bevacizumab, lung stromal cells NHLF/HMVEC-L, flow cytometer (Example 10)", "format": "cell-based", "conditions": "5-FU 100 μM, bevacizumab 2 μg per well in the combination, 72 hours", "experimental": "as §1, §2"}, "[4]": {"test_system": "HCT116", "experiment": "CNT with 5-FU with or without bevacizumab, 2D, spheroid, 3D (Example 5)", "format": "cell-based, human", "conditions": "bevacizumab 2 μg per well in the combination, 72 hours"}}, "data": [{"molecule": "O=c1[nH]cc(F)c(=O)[nH]1", "note": "[5-FU]", "values": [{"measurement": "CNT (%) Average value", "setting": "[1]; 5-FU 100 μM", "value": 28.8, "unit": "%"}, {"measurement": "CNT (%) Average value", "setting": "[1]; 5-FU 1 mM", "value": 7.7, "unit": "%"}, {"measurement": "CNT (%) Average value", "setting": "[2]; 2D, 5-FU 100 μM", "value": 54.2, "unit": "%"}, {"measurement": "CNT (%) Average value", "setting": "[2]; 2D, 5-FU 1 mM", "value": 25.8, "unit": "%"}, {"measurement": "CNT (%) Average value", "setting": "[2]; 3D, 5-FU 1 mM", "value": 75.0, "unit": "%"}, {"measurement": "CNT (%) Average value", "setting": "[2]; Spheroid, 5-FU 100 μM", "value": 57.5, "unit": "%"}, {"measurement": "CNT (%) Average value", "setting": "[2]; Spheroid, 5-FU 1 mM", "value": 44.8, "unit": "%"}, {"measurement": "CNT (%) Average value", "setting": "[3]; 2D", "value": 37.7, "unit": "%"}, {"measurement": "CNT (%) Average value", "setting": "[3]; 3D (NHLF, HMVEC-L)", "value": 72.9, "unit": "%"}, {"measurement": "CNT (%) Average value", "setting": "[4]; 2D, 5-FU 100 μM", "value": 38.9, "unit": "%"}, {"measurement": "CNT (%) Average value", "setting": "[4]; 2D, 5-FU 1 mM", "value": 15.3, "unit": "%"}, {"measurement": "CNT (%) Average value", "setting": "[4]; 3D, 5-FU 100 μM", "value": 86.9, "unit": "%"}, {"measurement": "CNT (%) Average value", "setting": "[4]; Spheroid, 5-FU 100 μM", "value": 62.3, "unit": "%"}, {"measurement": "CNT (%) Average value", "setting": "[4]; Spheroid, 5-FU 1 mM", "value": 27.7, "unit": "%"}]}]}
